Laboratory results reported in US6569878B1, “Substituted 4-amino-thiazol-2-yl compounds as cyclin-dependent kinase inhibitors” (Agouron Pharmaceuticals Inc., priority 1997, dated 2003).

How the values were obtained:
HCT116 = experiment: Inhibition of cell growth, MTT assay, HCT116; assay type: cell-based, human; conditions: for IC50 / IC90: Homo sapiens, HCT-116
Summary of the method: (§1)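 Cells rested 4 h after plating, then exposed to graded compound concentrations in 0.5% (v/v) DMSO for four to six days (cell-type dependent) at 37° C, 5% CO2. Viability was read by MTT (0.2 mg/mL final, 4 h at 37° C), with DMSO-solubilized formazan measured at 540 nm.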

[1] = target: T1, complex of human CDK4 and genetically truncated (1-264) cyclin D3 (Homo sapiens, UniProt P11802); experiment: Inhibition of CDK4/cyclin D retinoblastoma kinase activity (D-type cyclin is truncated D3); assay type: biochemical; conditions: superscript c: D-type cyclin is truncated D3; read-out: Ki CDK 4/D
T1 construct: made in house; host or cells: insect cells, co-infected with baculovirus
Protocol: Cyclin-dependent kinase activity was measured by quantifying the enzyme-catalyzed, time-dependent incorporation of radioactive phosphate from [^32P]ATP or [^33P]ATP into a protein substrate. Unless noted otherwise, assays were performed in 96-well plates in a total volume of 50 μL, in the presence of 10 mM HEPES (N-[2-hydroxyethyl]piperazine-N′-[2-ethanesulfonic acid]) (pH 7.4), 10 mM MgCl2, 25 μM adenosine triphosphate (ATP), 1 mg/mL ovalbumin, 5 μg/mL leupeptin, 1 mM dithiothreitol, 10 mM β-glycerophosphate, 0.1 mM sodium vanadate, 1 mM sodium fluoride, 2.5 mM ethylene glycol-bis(β-aminoethyl ether)-N,N,N′N′-tetraacetic acid (EGTA), 2% (v/v) dimethylsulfoxide, and 0.03-0.4 μCi [^32/33P]ATP per reaction. Reactions were initiated with enzyme, incubated at 30° C., and terminated after 20 minutes by the addition of ethylenediaminetetraacetic acid (EDTA) to 250 mM. The phosphorylated substrate was then captured on a nitrocellulose or phosphocellulose membrane using a 96-well filtration manifold, and unincorporated radioactivity was removed by repeated washing with 0.85% phosphoric acid. Radioactivity was quantified by exposing the dried membranes to a phosphorimager.
Apparent Ki values were measured by assaying enzyme activity in the presence of different inhibitor compound concentrations and subtracting the background radioactivity measured in the absence of enzyme. The kinetic parameters (kcat, Km for ATP) were measured for each enzyme under the usual assay conditions by determining the dependence of initial rates on ATP concentration. Inhibition data were fit to an equation for competitive inhibition using Kaleidagraph (Synergy Software), or were fit to an equation for competitive tight-binding inhibition using the software KineTic (BioKin, Ltd.).
A complex of human CDK4 and cyclin D3, or a complex of cyclin D1 and a fusion protein of human CDK4 and gluathione-S-transferase (GST-CDK4), or a complex of human CDK4 and genetically truncated (1-264) cyclin D3, was purified using traditional biochemical chromatographic techniques from insect cells that had been co-infected with the corresponding baculovirus expression vectors (see e.g., Meijer and Kim, “Chemical Inhibitors of Cyclin-Dependent Kinases,” Methods in Enzymol,. vol. 283 (1997), pp. 113-128.). The enzyme complex (5 or 50 nM) was assayed with 0.3-0.5 μg of purified recombinant retinoblastoma protein fragment (Rb) as a substrate. The engineered Rb fragment (residues 386-928 of the native retinoblastoma protein; 62.3 kDa) contains the majority of the phosphorylation sites found in the native 106-kDa protein, as well as a tag of six histidine residues for ease of purification. Phosphorylated Rb substrate was captured by microfiltration on a nitrocellulose membrane and quantified using a phosphorimager as described above. For measurement of tight-binding inhibitors, the enzyme complex concentration was lowered to 5 nM, and the assay duration was extended to 60 minutes, during which the time-dependence of product formation was linear.

CDK2/cyclin A = target: T2, CDK2/cyclin A (Homo sapiens, UniProt P24941); experiment: Inhibition of CDK2/cyclin A retinoblastoma kinase activity; assay type: biochemical; conditions: read-out: Ki CDK 2/A
T2 construct: made in house; host or cells: CDK2: insect cells (baculovirus); cyclin A: E. coli, then limited proteolysis
Summary of the method: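 Baculovirus-expressed CDK2 with excess proteolyzed cyclin A (or purified complex), 150 nM or 5 nM, phosphorylating an Rb fragment with 25 μM [32/33P]ATP, pH 7.4, 30° C, 20 min. Filter-captured radioactivity by phosphorimager; apparent Ki from fits to competitive or tight-binding competitive inhibition using measured ATP Km.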

SW-480 = experiment: Inhibition of cell growth, MTT assay, SW-480; assay type: cell-based; conditions: Homo sapiens, SW480; SW-480, MTT assay
Protocol: Inhibition of cell growth was measured using the tetrazolium salt assay, which is based on the ability of viable cells to reduce 3-(4,5-dimethylthiazol-2-yl)-2,5-[2H]-diphenyltetrazolium bromide (MTT) to formazan (Mossman, Journal of Immunological Methods, vol. 65 (1983), pp. 55-58). The water-insoluble purple formazan product was then detected spectrophotometrically. Various cell lines (HCT-116, Saos-2, U2-OS, SW480, COLO-205, RXF-393, M14, MDA-MB-468, and MCF7) were grown in 96-well plates. Cells were plated in the appropriate medium at a volume of 135 μl/well in either McCoy's 5A Medium (for Saos-2, U2-OS, SW480, and HCT-116 cells), RPMI (for COLO-205, RXF-393, M14 cells), or Minimum Essential Medium Eagle (for MDA-MB-468 and MCF7 cells). Plates were incubated for four hours before addition of inhibitor compounds. Different concentrations of inhibitor compounds were added in 0.5% (v/v) dimethylsulfoxide (15 μL/well), and cells were incubated at 37° C. (5% CO2) for four to six days (depending on cell type). At the end of the incubation, MTT was added to a final concentration of 0.2 mg/mL, and cells were incubated for 4 hours more at 37° C. After centrifugation of the plates and removal of medium, the absorbance of the formazan (solubilized in dimethylsulfoxide) was measured at 540 nm. […] All results were compared to control cells treated only with 0.5% (v/v) dimethylsulfoxide.

U2-OS = experiment: Inhibition of cell growth, MTT assay, U2-OS; assay type: cell-based; conditions: for IC50 / IC90: Homo sapiens, U2OS
Summary of the method: as §1

MDA-MB-468 = experiment: Inhibition of cell growth, MTT assay, MDA-MB-468; assay type: cell-based; conditions: Homo sapiens; MDA-MB-468, MTT assay
Protocol: (§2) The water-insoluble purple formazan product was then detected spectrophotometrically. […] Plates were incubated for four hours before addition of inhibitor compounds. Different concentrations of inhibitor compounds were added in 0.5% (v/v) dimethylsulfoxide (15 μL/well), and cells were incubated at 37° C. (5% CO2) for four to six days (depending on cell type). At the end of the incubation, MTT was added to a final concentration of 0.2 mg/mL, and cells were incubated for 4 hours more at 37° C. After centrifugation of the plates and removal of medium, the absorbance of the formazan (solubilized in dimethylsulfoxide) was measured at 540 nm.

[2] = target: T3, complex of human CDK4 and cyclin D3 (Homo sapiens, UniProt P11802); experiment: Inhibition of CDK4/cyclin D retinoblastoma kinase activity (D-type cyclin is D3); assay type: biochemical; conditions: superscript a: D-type cyclin is D3; apparent Ki; read-out: Ki CDK 4/D
T3 construct: made in house; host or cells: insect cells, co-infected with baculovirus
Summary of the method: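 Apparent Ki derived by fitting background-corrected activity to competitive (or, for tight binders, competitive tight-binding) equations with measured ATP Km. Rb phosphorylation by radiolabelled ATP was measured at 30°C, 20 min standard or 60 min at 5 nM complex for tight binders, via nitrocellulose capture and phosphorimager.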

Saos-2 = experiment: Inhibition of cell growth, MTT assay, Saos-2; assay type: cell-based; conditions: Homo sapiens; Saos-2, MTT assay
Summary of the method: as §1

MCF-7 = experiment: Inhibition of cell growth, MTT assay, MCF-7; assay type: cell-based; conditions: MCF-7, MTT assay; for IC50 / IC90: Homo sapiens, MCF7
Protocol: as §2

[3] = target: T4, human CDK1 (cdc2) and cyclin B (Homo sapiens, UniProt P06493); experiment: Inhibition of CDK1(cdc2)/cyclin B histone H1 kinase activity; assay type: biochemical; conditions: read-out: Ki CDK 1/B
T4 construct: purchased New England Biolabs (Beverly Mass.)
Summary of the method: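 CDK1/cyclin B (commercial, or CDK1/GST-cyclin B1 from co-infected insect cells) phosphorylated histone H1 with 25 μM [32/33P]ATP at pH 7.4, 30° C for 20 min, 2% DMSO. Product captured on phosphocellulose and read by phosphorimager; apparent Ki from competitive or tight-binding fits, with Km for ATP determined.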

T4 sequence (P06493 whole entry): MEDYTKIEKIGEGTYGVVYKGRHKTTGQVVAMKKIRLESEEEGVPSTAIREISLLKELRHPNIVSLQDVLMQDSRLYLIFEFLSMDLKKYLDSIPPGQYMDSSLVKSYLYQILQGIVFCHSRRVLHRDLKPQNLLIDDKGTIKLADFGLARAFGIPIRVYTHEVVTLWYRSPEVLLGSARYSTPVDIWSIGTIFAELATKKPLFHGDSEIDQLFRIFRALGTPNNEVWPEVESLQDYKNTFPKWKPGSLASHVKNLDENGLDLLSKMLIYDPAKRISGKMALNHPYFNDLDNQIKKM
T4 sequence (P14635 whole entry partner): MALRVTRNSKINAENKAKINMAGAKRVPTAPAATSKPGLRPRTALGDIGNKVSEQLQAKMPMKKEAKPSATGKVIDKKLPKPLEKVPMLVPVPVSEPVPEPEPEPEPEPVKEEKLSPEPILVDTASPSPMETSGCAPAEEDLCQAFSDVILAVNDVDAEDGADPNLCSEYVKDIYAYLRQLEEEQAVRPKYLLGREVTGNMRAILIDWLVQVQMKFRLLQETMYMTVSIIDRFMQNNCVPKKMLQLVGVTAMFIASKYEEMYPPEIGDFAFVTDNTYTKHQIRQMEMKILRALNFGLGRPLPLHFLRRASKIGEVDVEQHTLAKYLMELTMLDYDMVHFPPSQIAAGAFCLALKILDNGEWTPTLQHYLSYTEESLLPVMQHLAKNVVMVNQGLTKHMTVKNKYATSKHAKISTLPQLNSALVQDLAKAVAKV
T1 sequence (P11802 whole entry, the tested form may be a part): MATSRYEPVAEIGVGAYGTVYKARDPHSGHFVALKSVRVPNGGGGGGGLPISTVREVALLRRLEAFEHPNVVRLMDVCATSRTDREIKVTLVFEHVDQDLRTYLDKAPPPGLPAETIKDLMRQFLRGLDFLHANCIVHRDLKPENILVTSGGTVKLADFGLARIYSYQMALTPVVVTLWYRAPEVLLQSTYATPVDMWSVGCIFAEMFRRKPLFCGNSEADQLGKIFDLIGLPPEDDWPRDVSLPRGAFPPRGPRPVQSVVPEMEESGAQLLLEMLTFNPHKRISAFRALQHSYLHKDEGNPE
T1 sequence (P30281 1-264 partner limits assumed): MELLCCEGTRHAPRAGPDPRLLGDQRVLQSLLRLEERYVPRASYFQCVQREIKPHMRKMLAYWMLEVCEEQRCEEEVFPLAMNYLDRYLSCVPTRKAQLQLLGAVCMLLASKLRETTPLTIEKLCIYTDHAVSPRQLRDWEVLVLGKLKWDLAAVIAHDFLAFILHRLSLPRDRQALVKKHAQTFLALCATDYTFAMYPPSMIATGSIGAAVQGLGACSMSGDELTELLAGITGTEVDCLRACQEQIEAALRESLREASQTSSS
T3 sequence (P11802 whole entry): as the sequence (P11802 whole entry, the tested form may be a part) above
T3 sequence (P30281 whole entry partner): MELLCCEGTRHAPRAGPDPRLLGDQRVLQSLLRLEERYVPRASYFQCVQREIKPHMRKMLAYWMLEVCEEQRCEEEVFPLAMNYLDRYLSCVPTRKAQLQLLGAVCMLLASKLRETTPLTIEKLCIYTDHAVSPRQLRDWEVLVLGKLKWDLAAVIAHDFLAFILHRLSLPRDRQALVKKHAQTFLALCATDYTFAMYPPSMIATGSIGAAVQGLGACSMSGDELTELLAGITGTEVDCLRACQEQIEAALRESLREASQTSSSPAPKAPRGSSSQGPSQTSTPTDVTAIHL

SMILES | IC50 (HCT116) [nM] | IC90 (HCT116) [nM] | Ki [1] [nM] | Ki (CDK2/cyclin A) [nM] | IC50 (SW-480) [nM] | IC90 (SW-480) [nM] | IC50 (U2-OS) [nM] | IC90 (U2-OS) [nM] | IC50 (MDA-MB-468) [nM] | IC90 (MDA-MB-468) [nM] | Ki [2] [nM] | IC50 (Saos-2) [nM] | IC90 (Saos-2) [nM] | IC50 (MCF-7) [nM] | IC90 (MCF-7) [nM] | Ki [3] [nM] | % inhibition of growth in parentheses after >25 (U2-OS; concentration not given) [%] | % inhibition of growth in parentheses after >25 (HCT116; concentration not given) [%] | % inhibition of growth in parentheses after >25 (MCF-7; concentration not given)
CN(C)CCCN(C)c1ccc(Nc2nc(N)c(C(=O)c3c(F)cccc3F)s2)cc1 [C(126), (4-Amino-2-{4-[(3-dimethylamino-propyl)-methyl-amino]-phenylamino}-thiazol-5-yl)-(2,6-difluoro-phenyl)-methanone] | 600 | 1400 | 24 | 390 |  |  |  |  |  |  |  |  |  |  |  |  |  |  | 
COc1ccc(Nc2nc(N)c(C(=O)c3ccccc3[N+](=O)[O-])s2)cc1 [A(10), [4-Amino-2-(4-methoxy-phenylamino)-thiazol-5-yl]-(2-nitro-phenyl)-methanone] | 950 | 1800 |  | 318 | 700 | 7500 | 900 | 1600 | 720 | 1700 | 36 | 1300 | 4600 | 650 | 5500 | 57 |  |  | 
CN(C)CCN(C)c1ccc(Nc2nc(N)c(C(=O)c3c(F)cccc3F)s2)cc1 [C(110), (4-Amino-2-{4-[(2-dimethylamino-ethyl)-methyl-amino]-phenylamino}-thiazol-5-yl)-(2,6-difluoro-phenyl)-methanone] | 640 | 1700 |  | 260 |  |  | 700 | 1600 | 440 | 750 | 14 | 890 | 1800 | 400 | 1700 | 104 |  |  | 
Nc1nc(Nc2ccc(N3CCN(c4ccncc4)CC3)cc2)sc1C(=O)c1c(F)cccc1F [C(127)] |  |  | 26 | 215 |  |  |  |  |  |  |  |  |  |  |  |  |  |  | 
Nc1nc(Nc2ccc(N3CCN(c4ccccn4)CC3)cc2)sc1C(=O)c1c(F)cccc1F [K, {4-Amino-2-[4-(4-pyridin-2-yl-piperazin-1-yl)-phenylamino]-thiazol-5-yl}-(2,6-difluoro-phenyl)-methanone] | 3500 | 6200 | 43 | 364 |  |  | 3500 | 6000 |  |  |  | 6000 | 13000 |  |  |  |  |  | 
CN(CCC#N)c1ccc(Nc2nc(N)c(C(=O)c3c(F)cccc3F)s2)cc1 [C(129), 3-({4-[4-Amino-5-(2,6-difluorobenzoyl)-thiazol-2-yl-amino]-phenyl}-methylamino)-propionitrile] |  |  | 64 | 270 |  |  |  |  |  |  |  |  |  |  |  |  |  |  | 
Nc1nc(Nc2ccc(-c3ccncc3)cc2)sc1C(=O)c1c(F)cccc1F [C(122), [4-Amino-2-(4-pyridin-4-yl-phenylamino)-thiazol-5-yl]-(2,6-difluoro-phenyl)-methanone] | 1700 | 4800 | 35 | 165 |  |  | 1500 | 4700 |  |  |  | 3700 | 10000 |  |  |  |  |  | 
Nc1nc(Nc2ccc(N3CCN(CC4CC4)CC3)cc2)sc1C(=O)c1c(F)cccc1F [C(121), {4-Amino-2-[4-(4-cyclopropylmethyl-piperazin-1-yl)-phenylamino]-thiazol-5-yl}-(2,6-difluoro-phenyl)-methanone] | 2500 | 5300 | 10.6 | 953 |  |  | 6000 | 11000 |  |  |  | 5100 | 12000 |  |  |  |  |  | 
Cc1c(C(=O)c2sc(Nc3ccc4nc[nH]c4c3)nc2N)sc2ccccc12 [C(8), [4-Amino-2-(1H-benzoimidazol-6-ylamino)-thiazol-5-yl]-(3-methyl-benzo[b]thiophen-2-yl)-methanone] | 18000 | > 25000 |  | 389 | 8300 | 20000 | 10000 | > 25000 | 6800 | 15000 | 27 | 6200 | 18000 | 15000 | > 25000 | 97 | 84 | 88 | (82%)
NC(=O)C1CCN(c2ccc(Nc3nc(N)c(C(=O)c4c(F)cccc4F)s3)cc2)CC1 [L, {4-Amino-2-[4-(4-carboxamido-piperidin-1-yl)-phenylamino]-thiazol-5-yl}-(2,6-difluoro-phenyl)-methanone] | > 12500 |  | 22 |  |  |  |  |  |  |  |  |  |  |  |  | 193 |  |  | 
Nc1nc(Nc2ccc(N3CCC(C(=O)O)CC3)cc2)sc1C(=O)c1c(F)cccc1F [M, 1-{4-[4-Amino-5-(2,6-difluoro-benzoyl)-thiazol-2-ylamino]-phenyl}-piperidine-4-carboxylic Acid] | > 25000 |  | 46 | 290 |  |  |  |  |  |  |  |  |  |  |  |  |  |  | 
CN1CCCN(c2ccc(Nc3nc(N)c(C(=O)c4c(F)cccc4F)s3)cc2)CC1 [C(128), {4-Amino-2-[4-(1-methyl-[1,4]-diazepan-4-yl)-phenylamino]-thiazol-5-yl}-(2,6-difluoro-phenyl)-methanone] |  |  | 30 | 440 |  |  |  |  |  |  |  |  |  |  |  |  |  |  | 
